Reference: patent US20250101062A1, “ANTIMICROBIAL PEPTIDES” (Board of Regents of the University of Nebraska, priority 2023, published 2025)
Values after ≈ are worked out from the molar mass of the structure shown. Read-outs that look alike come from different tables or passages of the source. Where a SMILES comes first, the peptide text is derived from it. Where no end group is shown, it is not given here.

How the values were obtained:
S. aureus USA300 LAC = test: microbe, parasite or virus in culture; type: cell-based, Staphylococcus aureus; details: for change of MIC / activity: 10% human serum
Description: (§1) The following resistant bacterial clinical strains were used in this study: S. aureus USA300 LAC, S. epidermidis 1457, E. coli E423-17, P. aeruginosa E411-17, K. pneumoniae E406-17, and A. baumannii B28-16. While the S. aureus USA300 strain is methicillin-resistant, most of the Gram-negative bacteria contain extended-spectrum beta-lactamase and are resistant to beta-lactam antibiotics. Peptide activity against bacteria was tested using an established lab protocol (Mishra, et al. (2017) Acta Biomater., 49:316-328). In brief, a peptide concentration gradient with twofold dilution was made in the 96-well polystyrene microplate at 10 μL per well. Bacteria were grown to the exponential phase (i.e., optical density at 600 nm≈0.5), diluted to ˜10^5 CFU/mL in different percentages of MHB, TSB, or LB, and partitioned into the 96-well microplate at 90 μL per well. […] They were diluted with autoclaved distilled water to obtain different percentages. The microplates were incubated at 37° C. overnight and read on a ChroMate™ 4300 microplate reader at 600 nm (GMI, Ramsey, MN). The peptide concentration in the wells without bacterial growth is the MIC. As is the convention, MIC values were represented as ranges.
(§2) For pH effects on peptide activity, the pH of the medium was adjusted to a targeted pH for the autoclave and then remeasured at room temperature. For salt and serum effects on peptide activity, stock NaCl solution or human serum was added to the media.
(§3) Peptide activity against bacteria were tested using the CLSI standard procedure with minor modifications (Clinical and Laboratory Standards Institute (2018) Performance standards for antimicrobial susceptibility testing, 9th ed.; Mishra, et al. (2019) Proc. Natl. Acad. Sci., 116(27):13517-13522). In brief, a peptide concentration gradient with twofold dilution was made in the 96-well polystyrene microplate at 10 μL per well. Bacteria were grown to the exponential phase (i.e., optical density at 600 nm≈0.5), diluted to ˜10^5 CFU/mL in MHB, and partitioned into the 96-well microplate at 90 μL per well. The microplates were incubated at 37° C. overnight and read on a ChroMate® 4300 Microplate Reader at 600 nm (GMI, Ramsey, MN). The peptide concentration in the wells without bacterial growth is the minimal inhibitory concentration (MIC). As the convention, MIC values were represented as ranges.
(§4) For pH effects on peptide activity, the pH of the medium was adjusted to a targeted pH for autoclave and then remeasured at room temperature. For salt and serum effects on peptide activity, stock NaCl solution or human serum were added to the media.

[1] = Effect of MHB dilution on antibacterial activity of a panel of antibiotics; type: cell-based; details: MHB from 100 to 12.5%
Description: FIGS. 2A-2D show biofilm disruption activity of human LL-37 (FIGS. 2A and 2B) and 17BIPHE2 (FIGS. 2C and 2D) against the 24 hour preformed biofilms of S. aureus USA300 LAC in different MHB media: 12.5% MHB (FIGS. 2A and 2C) and 100% MHB (FIGS. 2B and 2D). FIGS. 2E-2H show the treatment outcome of LL-37 (FIGS. 2E and 2F) and 17BIPHE2 (FIGS. 2G and 2H) against the 24-hour preformed biofilms of E. coli E423-17 in different MHB media: 12.5% MHB (FIGS. 2E and 2G) and 100% MHB (FIGS. 2F and 2H). […] Growth curves of S. aureus USA 300 LAC (FIGS. 2J-2K) and P. aeruginosa 152 (FIGS. 2L-2M) in 12.5%, 25%, 50% and 100% MHB or TSB medium (curves from bottom to top).
The effects of MHB dilution on the antimicrobial activity of a panel of antibiotics was also compared (FIG. 2I).

E. coli E423-17 = type: cell-based, Escherichia coli
Description: as §1, §2, §3, §4

S. epidermidis 1457 = test: microbe, parasite or virus in culture; type: cell-based, Staphylococcus epidermidis; details: read-out: Antimicrobial activity (MIC) S. epidermidis 1457
Description: as §1, §3

A. baumannii B28-16 = type: cell-based, Acinetobacter baumannii; details: B28-16
Description: as §1, §3

P. aeruginosa E411-17 = test: microbe, parasite or virus in culture; type: cell-based, Pseudomonas aeruginosa; details: for MIC: read-out: Antimicrobial activity (MIC)
Description: as §1, §2, §3, §4

E. coli = details: data from the antimicrobial peptide database; cited from earlier work
K. pneumoniae E406-17 = type: cell-based, Klebsiella pneumoniae
Description: as §1, §3

[2] = Staphylococcus aureus, MRSA / USA300, MRSA in MHB, 20% serum, read-out: Antimicrobial activity (MIC)
[3] = Staphylococcus aureus, MRSA / USA300, pH 6.3, MRSA in MHB, pH 6.3, read-out: Antimicrobial activity (MIC)
[4] = Staphylococcus aureus, MRSA / USA300, pH 7.2, MRSA in MHB, pH 7.2, read-out: Antimicrobial activity (MIC)
[5] = USA300, read-out: Antimicrobial activity (MIC)

NCC[C@H](O)C(=O)N[C@@H]1C[C@H](N)[C@@H](O[C@H]2O[C@H](CN)[C@@H](O)[C@H](O)[C@H]2O)[C@H](O)[C@H]1O[C@H]1O[C@H](CO)[C@@H](O)[C@H](N)[C@H]1O [Amikacin]
change of MIC / activity (S. aureus USA300 LAC; MRSA in MHB): fourfold | MIC (S. aureus USA300 LAC; [2]): 32 to 64 µM (≈ 18.7 to 37.5 µg/mL) | MIC (S. aureus USA300 LAC; [3]): 32 µM (≈ 18.7 µg/mL) | MIC (S. aureus USA300 LAC; [4]): 8 µM (≈ 4.68 µg/mL) | change in MIC with dilution of MHB [1]: small changes in MIC values

CCCCCCCCCC(=O)N[C@H](CCCCN)C(=O)N[C@H](CCCNC(=N)N)C(=O)N[C@@H](C(=O)N[C@@H](C(=O)N[C@H](CCC(N)=O)C(=O)N[C@H](CCCNC(=N)N)C(=O)N[C@@H](C(=O)N[C@H](CCCCN)C(N)=O)[C@H](C)CC)C(C)C)[C@H](C)CC [C10-KR8, reference compound] (HELM PEPTIDE1{[CCCCCCCCCC(=O)[*:2]].[dK].[dR].[dI].[dV].[dQ].[dR].[dI].[dK].[am]}$$$$V2.0; N-terminus and C-terminus assumed)
MIC (S. aureus USA300 LAC; USA300, pH 6.21, read-out: Antimicrobial activity (MIC)): 8 µM (≈ 9.55 µg/mL) | MIC (S. aureus USA300 LAC; USA300, pH 7.22, read-out: Antimicrobial activity (MIC)): 4 µM (≈ 4.77 µg/mL) | MIC (S. aureus USA300 LAC; USA300, pH 8.13, read-out: Antimicrobial activity (MIC)): 2 µM (≈ 2.39 µg/mL) | MIC (S. aureus USA300 LAC; [5]): 4 µM (≈ 4.77 µg/mL) | MIC (S. aureus USA300 LAC; USA300, read-out: Antimicrobial activity (MIC) S. aureus USA300): 4 µM (≈ 4.77 µg/mL) | Antimicrobial activity (MIC) E. coli E423-17 (E. coli E423-17; E423-17): 8 µM | MIC (S. epidermidis 1457): 4 µM (≈ 4.77 µg/mL) | Antimicrobial activity (MIC) A. baumannii B28-16 (A. baumannii B28-16): 4 µM | Antimicrobial activity (MIC) P. aeruginosa E411-17 (P. aeruginosa E411-17; E411-17): 8 µM | MIC (P. aeruginosa E411-17; E411-17, pH 6.21): 16 µM (≈ 19.1 µg/mL) | Antimicrobial activity (MIC) (P. aeruginosa E411-17; E411-17, pH 7.22): 4 to 8 µM | MIC (P. aeruginosa E411-17; E411-17, pH 8.13): 4 µM (≈ 4.77 µg/mL) | MIC (P. aeruginosa E411-17; E411-17): 16 µM (≈ 19.1 µg/mL)

CC(=O)NC[C@H]1CN(c2ccc(N3CCOCC3)c(F)c2)C(=O)O1 [Linezolid]
MIC (S. aureus USA300 LAC; [2]): 8 to 16 µM (≈ 2.7 to 5.4 µg/mL) | MIC (S. aureus USA300 LAC; Staphylococcus aureus, MRSA / USA300, MRSA in MHB, NaCl (150 mM), read-out: Antimicrobial activity (MIC)): 8 µM (≈ 2.7 µg/mL) | change in MIC with dilution of MHB [1]: essentially no changes

C/C(=C\C(=O)OCCCCCCCCC(=O)O)C[C@@H]1OC[C@H](C[C@@H]2O[C@H]2[C@@H](C)[C@H](C)O)[C@@H](O)[C@H]1O [Muporicin]
change of MIC / activity (S. aureus USA300 LAC; MRSA in MHB): fourfold | Antimicrobial activity (MIC) (S. aureus USA300 LAC; MRSA in MHB, 10% serum): 4 µM | Antimicrobial activity (MIC) (S. aureus USA300 LAC; MRSA in MHB, 20% serum): 4 µM | Antimicrobial activity (MIC) (S. aureus USA300 LAC; MRSA in MHB, NaCl (150 mM)): 1 µM | Antimicrobial activity (MIC) (S. aureus USA300 LAC; MRSA in MHB, pH 6.3): 0.5 µM | Antimicrobial activity (MIC) (S. aureus USA300 LAC; MRSA in MHB, pH 7.2): 1 µM | change in MIC with dilution of MHB [1]: essentially no changes

NC[C@H]1O[C@H](O[C@H]2[C@H](O)[C@@H](O[C@H]3O[C@H](CO)[C@@H](O)[C@H](N)[C@H]3O)[C@H](N)C[C@@H]2N)[C@H](N)C[C@@H]1O [Tobramycin]
MIC (S. aureus USA300 LAC; Staphylococcus aureus, MRSA / USA300, MRSA in MHB, 10% serum, read-out: Antimicrobial activity (MIC)): 2 to 4 µM (≈ 0.935 to 1.87 µg/mL) | MIC (S. aureus USA300 LAC; [3]): 4 µM (≈ 1.87 µg/mL) | MIC (S. aureus USA300 LAC; [4]): 2 µM (≈ 0.935 µg/mL) | change in MIC with dilution of MHB [1]: essentially no changes

FKRIVQRIKDFLRNLV [FK-16, reference compound]
Antimicrobial activity (MIC) (S. aureus USA300 LAC; MHB 12.5%): active | Antimicrobial activity (MIC) (S. aureus USA300 LAC; MHB 100%): active | Antimicrobial activity (MIC) (E. coli E423-17; MHB 12.5%): active | Antimicrobial activity (MIC) (E. coli E423-17; MHB 100%): active

GGLKKLGKKLEGAGKRVFKASEKALPVVVGIKAIGK (listed as Aedes aegypti) [Aedesin]
MIC against E. coli (E. coli): 2 to 4 µg/mL

GIWSSIKNLASKAWNSDIGQSLRNKAAGAINKFVADKIGVTPSQAAS (vaejovis mexicanus) [Vejovine]
MIC against E. coli (E. coli): 4.4 to 20 µM

GVFDIIKGAGKQLIARAMGKIAEKVGLNKDGN (listed as Leptodactylus pustulatus) [Ocellatin-PT8]
MIC against E. coli (E. coli): 60 µM

GWLKKIGKKIERVGQHTRDATIQGLGIAQQAANVAATAR (Drosophila melanogaster) [Sarcotoxin IA]
MIC against E. coli (E. coli): 0.2 to 6.3 µg/mL

KEKIGKEFKR-NH2 (C-terminus assumed) [KE-10]
MIC (S. aureus USA300 LAC; [5]): >64 µM | Antimicrobial activity (MIC) (E. coli E423-17; E423-17): >64 µM

KRIVQRIK-NH2 [W538]
Activity (MIC) K. pneumoniae (K. pneumoniae E406-17): >32 µM | Antimicrobial activity (MIC) (S. aureus USA300 LAC; MHB 12.5%): > 64 µM | Activity (MIC) S. aureus (S. aureus USA300 LAC; USA300): >32 µM | MIC (S. aureus USA300 LAC; [5]): >64 µM | Activity (MIC) E.coli (E. coli E423-17; E423-17): >32 µM | Antimicrobial activity (MIC) (E. coli E423-17; E423-17): >64 µM | Antimicrobial activity (MIC) (E. coli E423-17; MHB 12.5%): 8 µM | Activity (MIC) A. baumannii (A. baumannii B28-16): >32 µM | Activity (MIC) P. aeruginosa (P. aeruginosa E411-17; E411-17): >32 µM
